# Data: doi:10.1101/2022.09.09.507317v1 (biorxiv, 2022)
# Assays:
# Assay in all cases: actin-activated ATPase, PK/LDH-coupled NADH absorbance
# PfMyoA = target: T1, PfMyoA (Plasmodium falciparum, UniProt Q8IDR3); assay type: biochemical; details: 2 mM ATP, bovine cardiac actin, 3 mM MgCl2, 5 mM KCl, pH 7.4, 2% DMSO; n = 5
# T1 sequence (Q8IDR3 1-818): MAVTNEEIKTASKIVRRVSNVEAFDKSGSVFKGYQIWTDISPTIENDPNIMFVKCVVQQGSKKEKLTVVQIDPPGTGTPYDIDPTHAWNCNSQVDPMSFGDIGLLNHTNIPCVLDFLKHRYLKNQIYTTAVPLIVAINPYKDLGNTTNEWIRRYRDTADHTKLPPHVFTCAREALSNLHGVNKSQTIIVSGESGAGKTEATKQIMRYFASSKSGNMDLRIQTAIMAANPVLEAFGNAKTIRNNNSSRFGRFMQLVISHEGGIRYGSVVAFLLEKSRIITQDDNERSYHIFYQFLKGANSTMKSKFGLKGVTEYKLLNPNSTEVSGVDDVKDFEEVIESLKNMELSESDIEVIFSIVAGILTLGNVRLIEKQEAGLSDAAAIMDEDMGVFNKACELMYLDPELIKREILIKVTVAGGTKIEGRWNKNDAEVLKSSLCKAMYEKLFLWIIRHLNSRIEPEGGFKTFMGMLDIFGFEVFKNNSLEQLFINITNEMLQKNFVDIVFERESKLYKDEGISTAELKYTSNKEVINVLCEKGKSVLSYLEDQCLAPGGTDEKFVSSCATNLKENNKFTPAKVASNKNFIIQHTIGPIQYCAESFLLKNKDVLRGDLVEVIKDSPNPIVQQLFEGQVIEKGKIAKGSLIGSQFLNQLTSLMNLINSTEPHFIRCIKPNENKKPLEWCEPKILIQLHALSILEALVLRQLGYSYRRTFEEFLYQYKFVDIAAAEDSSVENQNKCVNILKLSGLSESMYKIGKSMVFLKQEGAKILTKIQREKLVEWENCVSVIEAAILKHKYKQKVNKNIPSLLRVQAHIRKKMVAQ
# T1 sequence (Q8IJM4 1-134 partner): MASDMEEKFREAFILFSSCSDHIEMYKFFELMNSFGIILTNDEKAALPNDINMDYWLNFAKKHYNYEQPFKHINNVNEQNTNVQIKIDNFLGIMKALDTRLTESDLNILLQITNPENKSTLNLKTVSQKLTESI
# T1 sequence (Q8I4W8 1-204 partner): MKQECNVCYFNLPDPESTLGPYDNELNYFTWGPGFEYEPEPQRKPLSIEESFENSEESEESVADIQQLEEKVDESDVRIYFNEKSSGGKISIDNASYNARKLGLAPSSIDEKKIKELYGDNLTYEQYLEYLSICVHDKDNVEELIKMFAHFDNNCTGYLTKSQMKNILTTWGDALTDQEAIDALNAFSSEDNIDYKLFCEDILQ
# rabbit skeletal myosin = assay type: biochemical, Oryctolagus cuniculus; details: 2 mM ATP, 3 mM MgCl2, 5 mM KCl, pH 7.4, 2% DMSO, 100 nM myosin, n = 6
# bovine cardiac myosin = bovine cardiac myosin (Bos taurus, UniProt Q9BE39); assay type: biochemical; details: 2 mM ATP, 3 mM MgCl2, 5 mM KCl, pH 7.4, 2% DMSO, 200 nM myosin, n = 3
# Chain of bovine cardiac myosin (Q9BE39 whole entry): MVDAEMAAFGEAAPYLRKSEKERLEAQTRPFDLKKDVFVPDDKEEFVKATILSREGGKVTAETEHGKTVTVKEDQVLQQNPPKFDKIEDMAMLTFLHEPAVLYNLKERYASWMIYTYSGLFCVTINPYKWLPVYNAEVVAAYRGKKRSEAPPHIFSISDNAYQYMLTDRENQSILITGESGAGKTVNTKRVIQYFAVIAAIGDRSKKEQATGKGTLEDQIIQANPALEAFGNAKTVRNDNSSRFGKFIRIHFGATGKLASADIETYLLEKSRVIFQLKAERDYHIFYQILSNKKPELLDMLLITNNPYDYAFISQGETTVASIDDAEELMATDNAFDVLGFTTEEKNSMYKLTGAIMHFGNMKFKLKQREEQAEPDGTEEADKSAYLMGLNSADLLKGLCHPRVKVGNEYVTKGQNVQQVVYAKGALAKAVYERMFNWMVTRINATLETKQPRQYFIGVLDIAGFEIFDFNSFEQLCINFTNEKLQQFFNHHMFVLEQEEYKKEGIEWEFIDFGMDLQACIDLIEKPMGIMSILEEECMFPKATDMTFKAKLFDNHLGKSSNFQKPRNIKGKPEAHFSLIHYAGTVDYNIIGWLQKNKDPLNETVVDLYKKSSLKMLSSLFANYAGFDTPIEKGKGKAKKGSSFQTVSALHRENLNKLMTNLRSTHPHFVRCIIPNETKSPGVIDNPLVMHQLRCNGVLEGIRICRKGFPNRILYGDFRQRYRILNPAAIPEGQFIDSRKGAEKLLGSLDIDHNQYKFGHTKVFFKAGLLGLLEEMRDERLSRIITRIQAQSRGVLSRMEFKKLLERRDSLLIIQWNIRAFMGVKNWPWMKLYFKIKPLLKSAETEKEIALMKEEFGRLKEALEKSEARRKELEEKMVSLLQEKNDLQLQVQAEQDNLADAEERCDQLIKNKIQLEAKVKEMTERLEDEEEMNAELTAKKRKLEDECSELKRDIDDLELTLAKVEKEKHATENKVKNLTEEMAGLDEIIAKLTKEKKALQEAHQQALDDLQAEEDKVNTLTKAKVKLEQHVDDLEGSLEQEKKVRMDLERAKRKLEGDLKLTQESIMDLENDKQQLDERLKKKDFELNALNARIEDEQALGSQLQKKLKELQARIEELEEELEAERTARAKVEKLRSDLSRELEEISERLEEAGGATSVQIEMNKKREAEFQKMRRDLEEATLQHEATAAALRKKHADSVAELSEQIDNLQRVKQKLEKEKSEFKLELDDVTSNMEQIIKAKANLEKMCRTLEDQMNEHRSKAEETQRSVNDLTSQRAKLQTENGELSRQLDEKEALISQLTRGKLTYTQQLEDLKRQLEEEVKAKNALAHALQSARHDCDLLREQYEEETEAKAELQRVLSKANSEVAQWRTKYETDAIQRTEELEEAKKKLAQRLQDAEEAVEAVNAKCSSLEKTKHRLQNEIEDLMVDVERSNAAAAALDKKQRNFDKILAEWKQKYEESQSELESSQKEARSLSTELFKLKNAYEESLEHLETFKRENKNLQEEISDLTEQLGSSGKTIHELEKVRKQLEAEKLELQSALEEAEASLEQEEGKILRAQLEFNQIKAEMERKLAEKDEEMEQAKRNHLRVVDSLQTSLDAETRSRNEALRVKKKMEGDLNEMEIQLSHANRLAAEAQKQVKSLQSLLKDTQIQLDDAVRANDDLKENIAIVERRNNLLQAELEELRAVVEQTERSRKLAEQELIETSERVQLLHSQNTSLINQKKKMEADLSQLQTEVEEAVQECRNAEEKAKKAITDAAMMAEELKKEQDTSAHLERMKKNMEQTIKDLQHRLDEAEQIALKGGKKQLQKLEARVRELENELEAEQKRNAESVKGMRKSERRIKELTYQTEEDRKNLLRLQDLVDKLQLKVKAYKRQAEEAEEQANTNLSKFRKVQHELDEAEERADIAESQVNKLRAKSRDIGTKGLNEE
# Chain of bovine cardiac myosin (P85100 2-199 partner): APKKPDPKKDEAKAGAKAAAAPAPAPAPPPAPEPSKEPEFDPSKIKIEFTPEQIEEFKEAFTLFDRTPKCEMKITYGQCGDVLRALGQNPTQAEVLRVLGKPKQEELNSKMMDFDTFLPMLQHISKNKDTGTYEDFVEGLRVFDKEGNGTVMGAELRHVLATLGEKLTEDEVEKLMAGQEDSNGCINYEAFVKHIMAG
# Chain of bovine cardiac myosin (Q3SZE5 2-166 partner): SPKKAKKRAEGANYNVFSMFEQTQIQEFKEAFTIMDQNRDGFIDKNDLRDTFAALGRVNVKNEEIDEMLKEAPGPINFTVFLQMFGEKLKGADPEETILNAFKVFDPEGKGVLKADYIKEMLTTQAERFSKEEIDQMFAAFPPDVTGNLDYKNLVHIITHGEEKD
# [1] = target: chicken smooth muscle myosin (Gallus gallus, UniProt P10587); assay type: biochemical; details: 2 mM ATP, 3 mM MgCl2, 5 mM KCl, pH 7.4, 2% DMSO, 300 nM myosin, n = 2
# Chain of chicken smooth muscle myosin (P10587 2-1979): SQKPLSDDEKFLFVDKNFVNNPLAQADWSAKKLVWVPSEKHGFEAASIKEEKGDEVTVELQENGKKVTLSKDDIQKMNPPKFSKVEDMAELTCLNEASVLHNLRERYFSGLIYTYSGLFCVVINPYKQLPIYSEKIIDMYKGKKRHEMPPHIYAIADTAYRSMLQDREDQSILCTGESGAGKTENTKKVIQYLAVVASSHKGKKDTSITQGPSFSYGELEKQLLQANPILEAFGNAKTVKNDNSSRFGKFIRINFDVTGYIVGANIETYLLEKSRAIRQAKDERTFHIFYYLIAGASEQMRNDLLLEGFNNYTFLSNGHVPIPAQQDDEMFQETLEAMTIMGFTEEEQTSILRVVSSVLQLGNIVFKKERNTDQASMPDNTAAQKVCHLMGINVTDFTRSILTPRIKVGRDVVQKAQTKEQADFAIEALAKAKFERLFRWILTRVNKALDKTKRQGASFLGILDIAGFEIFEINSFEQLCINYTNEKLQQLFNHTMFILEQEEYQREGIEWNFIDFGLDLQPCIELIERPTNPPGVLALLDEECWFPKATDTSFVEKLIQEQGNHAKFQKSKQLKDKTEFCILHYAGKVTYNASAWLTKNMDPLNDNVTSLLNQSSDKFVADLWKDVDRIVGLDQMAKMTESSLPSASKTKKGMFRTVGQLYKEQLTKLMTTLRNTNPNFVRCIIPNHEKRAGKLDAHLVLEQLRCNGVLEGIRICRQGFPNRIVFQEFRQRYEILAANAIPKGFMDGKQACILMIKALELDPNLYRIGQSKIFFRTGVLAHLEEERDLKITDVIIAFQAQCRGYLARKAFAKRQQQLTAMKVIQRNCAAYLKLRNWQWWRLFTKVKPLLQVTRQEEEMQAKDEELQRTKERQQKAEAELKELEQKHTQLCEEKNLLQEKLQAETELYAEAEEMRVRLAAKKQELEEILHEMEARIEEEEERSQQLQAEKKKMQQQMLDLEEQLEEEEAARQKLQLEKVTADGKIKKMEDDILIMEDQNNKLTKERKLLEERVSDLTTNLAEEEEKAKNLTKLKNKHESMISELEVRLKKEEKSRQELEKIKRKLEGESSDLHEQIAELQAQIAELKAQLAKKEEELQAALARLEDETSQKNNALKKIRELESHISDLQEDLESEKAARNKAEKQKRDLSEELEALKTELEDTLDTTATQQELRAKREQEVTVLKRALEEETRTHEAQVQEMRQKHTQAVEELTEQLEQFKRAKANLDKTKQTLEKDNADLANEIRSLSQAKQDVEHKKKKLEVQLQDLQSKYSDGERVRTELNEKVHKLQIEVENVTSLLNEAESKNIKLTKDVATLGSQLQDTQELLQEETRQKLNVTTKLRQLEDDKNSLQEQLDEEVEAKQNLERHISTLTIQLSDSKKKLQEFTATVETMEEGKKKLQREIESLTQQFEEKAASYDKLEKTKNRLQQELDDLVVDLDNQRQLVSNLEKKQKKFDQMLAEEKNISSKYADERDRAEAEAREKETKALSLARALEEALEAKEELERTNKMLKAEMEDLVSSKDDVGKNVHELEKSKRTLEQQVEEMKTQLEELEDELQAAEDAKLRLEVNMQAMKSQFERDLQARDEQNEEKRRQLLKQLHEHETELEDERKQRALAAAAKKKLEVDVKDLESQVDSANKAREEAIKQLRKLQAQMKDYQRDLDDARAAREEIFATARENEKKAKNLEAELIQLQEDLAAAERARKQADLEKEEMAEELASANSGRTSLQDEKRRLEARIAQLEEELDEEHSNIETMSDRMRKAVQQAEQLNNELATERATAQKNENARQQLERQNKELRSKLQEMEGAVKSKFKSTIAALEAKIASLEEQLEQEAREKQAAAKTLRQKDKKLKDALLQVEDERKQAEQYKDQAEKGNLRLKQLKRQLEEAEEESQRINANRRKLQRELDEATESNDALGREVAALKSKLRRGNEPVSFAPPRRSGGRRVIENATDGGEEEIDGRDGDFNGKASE
# Chain of chicken smooth muscle myosin (P02607 2-151 partner): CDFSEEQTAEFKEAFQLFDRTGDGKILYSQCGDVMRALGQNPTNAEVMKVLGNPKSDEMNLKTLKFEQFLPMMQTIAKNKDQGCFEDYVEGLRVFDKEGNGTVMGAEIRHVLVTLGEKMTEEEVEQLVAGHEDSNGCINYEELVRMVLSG
# Chain of chicken smooth muscle myosin (P02612 2-172 partner): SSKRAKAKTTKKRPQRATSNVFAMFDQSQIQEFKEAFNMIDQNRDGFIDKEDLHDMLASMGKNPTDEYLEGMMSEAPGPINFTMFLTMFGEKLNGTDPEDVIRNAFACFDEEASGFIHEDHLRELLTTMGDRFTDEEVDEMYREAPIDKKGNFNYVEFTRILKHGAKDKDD
IC50 (PfMyoA) [nM],IC50 (rabbit skeletal myosin) [nM],IC50 (bovine cardiac myosin) [nM],IC50 [1] [nM],Compound
400 ± 100,,,,COc1ccc(C2(NCc3c[nH]nc3-c3cccs3)CC2)cc1 [KNX-002]
,1000 ± 400,10000 ± 6400,> 50000,KNX-115
